Reference: ChEMBL document CHEMBL3399917, “Design, synthesis and antiproliferative activity evaluation of m-(4-morpholinyl-1,3,5-triazin-2-yl)benzamides in vitro” (Bioorg Med Chem Lett, 2015)
Active and inactive are the calls of the source. No cut-off for these calls is given here.

Legend:
[1] = Antiproliferative activity against human HCT116 cells assessed as inhibitory ratio at 10 uM after 72 hrs by MTT assay; type: functional; conditions: HCT-116, 72 h
[2] = test system: MCF7; assay: Antiproliferative activity against human MCF7 cells assessed as inhibitory ratio at 10 uM after 72 hrs by MTT assay; type: functional; conditions: MCF7, 72 h
[3] = test system: HeLa; assay: Antiproliferative activity against human HeLa cells after 72 hrs by MTT assay; type: functional, cell-based
[4] = Antiproliferative activity against human HCT116 cells after 72 hrs by MTT assay; type: functional, cell-based; conditions: HCT-116, 72 h
[5] = test system: A549; assay: Antiproliferative activity against human A549 cells after 72 hrs by MTT assay; type: functional, cell-based; conditions: A549, 72 h
[6] = Antiproliferative activity against human U87MG cells after 72 hrs by MTT assay; type: functional, cell-based, U-87MG ATCC; conditions: U-87 MG
[7] = test system: MCF7; assay: Antiproliferative activity against human MCF7 cells after 72 hrs by MTT assay; type: functional, cell-based; conditions: MCF7, 72 h
[8] = test system: HCT-116; assay: Inhibition of PI3K/Akt in human HCT116 cells assessed as Akt phosphorylation at 10 uM after 1 hr by Western blotting analysis; type: cell-based
[9] = test system: HCT-116; assay: Induction of apoptosis in human HCT116 cells assessed as cell shrinking and vacuolization, chromatin condensation and nuclear fragmentation after 24 hrs by Hoechst staining based phase contrast microscopy; type: functional

IC50 [3]	IC50 [5]	IC50 [7]	Structure (SMILES)	inhibition at 10 µM [1]	inhibition at 10 µM [2]	IC50 [4]	IC50 [6]	inhibition [8]	Activity [9]
–	–	–	NC(=O)c1cc(-c2nc(N3CCOCC3)nc(N3CCOCC3)n2)ccc1O	31.7%	32.7%	–	–	–	–
–	–	–	NC(=O)c1cc(OCc2ccccc2)cc(-c2nc(N3CCOCC3)nc(N3CCOCC3)n2)c1	31.6%	32.5%	–	–	–	–
–	–	–	CS(=O)(=O)NC1CCN(c2nc(-c3cc(C(N)=O)cc(C(F)(F)F)c3)nc(N3CCOCC3)n2)CC1	19%	49.3%	–	–	–	–
–	–	–	O=C(O)c1cc(-c2nc(N3CCOCC3)nc(N3CCOCC3)n2)cc(C(F)(F)F)c1	44.9%	34.4%	–	–	–	–
–	–	–	CN1CCN(c2nc(-c3cc(C(N)=O)cc(C(F)(F)F)c3)nc(N3CCOCC3)n2)CC1	36.2%	40.2%	–	–	–	–
> 20 µM	11.3 µM	5.23 µM	NC(=O)c1cc(-c2nc(N3CCOCC3)nc(N3CCOCC3)n2)ccc1OCc1ccc(F)cc1	66.9%	54.9%	2.87 µM	3.98 µM	–	–
–	–	–	COC(=O)c1cc(-c2nc(N3CCOCC3)nc(N3CCOCC3)n2)cc(C(F)(F)F)c1	40%	37.2%	–	–	–	–
–	–	–	CN(CCCC(=O)N1CCN(S(C)(=O)=O)CC1)c1nc(-c2cc(C(N)=O)cc(C(F)(F)F)c2)nc(N2CCOCC2)n1	40.8%	37.7%	–	–	–	–
–	–	–	NC(=O)c1cc(-c2nc(N3CCOCC3)nc(N3CCOCC3)n2)ccc1Cl	35.6%	34.4%	–	–	–	–
4.34 µM	2.07 µM	1 µM	Nc1cc(C(F)(F)F)c(-c2cc(N3CCOCC3)nc(N3CCOCC3)n2)cn1 [BUPARLISIB]	89.5%	84%	0.48 µM	1.64 µM	Active	–
–	–	–	NC(=O)c1cccc(-c2nc(N3CCOCC3)nc(N3CCOCC3)n2)c1	51.1%	38%	–	–	–	–
–	–	–	CS(=O)(=O)N1CCN(c2nc(-c3cc(C(N)=O)cc(C(F)(F)F)c3)nc(N3CCOCC3)n2)CC1	19.4%	47.4%	–	–	–	–
–	–	–	CN(CCCC(=O)N1CCOCC1)c1nc(-c2cc(C(N)=O)cc(C(F)(F)F)c2)nc(N2CCOCC2)n1	44.8%	38.5%	–	–	–	–
–	–	–	CS(=O)(=O)N1CCN(C(=O)CNc2nc(-c3cc(C(N)=O)cc(C(F)(F)F)c3)nc(N3CCOCC3)n2)CC1	29.8%	19.3%	–	–	–	–
–	–	–	NC(=O)c1cc(-c2nc(NCC(=O)N3CCOCC3)nc(N3CCOCC3)n2)cc(C(F)(F)F)c1	29.2%	30.3%	–	–	–	–
–	–	–	COc1ccc(-c2nc(N3CCOCC3)nc(N3CCOCC3)n2)cc1C(N)=O	40.4%	36.2%	–	–	–	–
4.83 µM	2.37 µM	1.25 µM	NC(=O)c1cc(OC(F)(F)F)cc(-c2nc(N3CCOCC3)nc(N3CCOCC3)n2)c1	89.3%	70.7%	0.9 µM	1.53 µM	Active	Dose-dependent effect
–	–	–	CS(=O)(=O)N1CCC(Nc2nc(-c3cc(C(N)=O)cc(C(F)(F)F)c3)nc(N3CCOCC3)n2)CC1	42.9%	30.9%	–	–	–	–
8.07 µM	8.23 µM	4.97 µM	NC(=O)c1cc(-c2nc(N3CCOCC3)nc(N3CCOCC3)n2)cc(C(F)(F)F)c1	71.4%	59.3%	2.43 µM	11.2 µM	–	–
–	–	–	NC(=O)c1cc(-c2nc(N3CCOCC3)nc(N3CCOCC3)n2)ccc1OCc1cccc(F)c1	35.9%	26.2%	–	–	–	–
8.17 µM	3.72 µM	2.17 µM	NC(=O)c1cc(O)cc(-c2nc(N3CCOCC3)nc(N3CCOCC3)n2)c1	77.9%	65.8%	1.19 µM	3.21 µM	–	–
–	–	–	NC(=O)c1cc(-c2nc(N3CCOCC3)nc(N3CCOCC3)n2)ccc1OCc1ccccc1	29.9%	31.2%	–	–	–	–
–	–	–	COc1cc(C(N)=O)cc(-c2nc(N3CCOCC3)nc(N3CCOCC3)n2)c1	41.2%	42.2%	–	–	–	–
7.12 µM	2.36 µM	2.13 µM	CN(c1nc(-c2cc(C(N)=O)cc(C(F)(F)F)c2)nc(N2CCOCC2)n1)C1CCN(S(C)(=O)=O)CC1	72%	61.7%	1.94 µM	4.63 µM	–	–
